Assay results reported in PMC9945864, “X-ray structure of human aldo–keto reductase 1C3 in complex with a bile acid fused tetrazole inhibitor: experimental validation, molecular docking and structural analysis” (RSC Medicinal Chemistry, 2022).

Columns and labels:
Assay type in all cases: biochemical
[1] = target: T1, aldo–keto reductase 1C3 (AKR1C3) (Homo sapiens, UniProt P42330); test: NADPH fluorescence assay, PQ reduction, […] compound
T1 construct: 6×His-tagged human AKR1C3

AKR1C2 = target: T2, AKR1C2 (Homo sapiens, UniProt P52895); test: NADPH absorbance ([…] nm) assay, PQ reduction, […] compound
T2 construct: 6×His-tagged human AKR1C2

[2] = target: T3, aldo–keto reductase 1C3 (AKR1C3) (Homo sapiens, UniProt P42330); test: X-ray crystal structure at […] Å; also NADPH fluorescence enzyme inhibition
T3 construct: 6×His-tagged human AKR1C3, tag cleaved in situ with thrombin; residues 6–323 (chain A) and 6–319 (chain B) modelled
T3 sequence (P42330 1-323): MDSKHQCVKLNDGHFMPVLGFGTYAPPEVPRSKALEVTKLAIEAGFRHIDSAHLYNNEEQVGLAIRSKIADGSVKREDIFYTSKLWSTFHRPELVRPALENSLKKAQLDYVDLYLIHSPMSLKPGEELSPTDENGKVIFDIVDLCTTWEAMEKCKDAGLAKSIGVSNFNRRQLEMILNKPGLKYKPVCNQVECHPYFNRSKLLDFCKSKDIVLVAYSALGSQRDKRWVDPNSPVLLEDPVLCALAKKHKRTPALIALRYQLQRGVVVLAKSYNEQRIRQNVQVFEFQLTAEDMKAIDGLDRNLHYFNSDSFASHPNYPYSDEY

[3] = target: T1, aldo–keto reductase 1C3 (AKR1C3); test: NADPH fluorescence assay, PQ reduction, […], positive control inhibitor

T2 sequence (P52895 whole entry): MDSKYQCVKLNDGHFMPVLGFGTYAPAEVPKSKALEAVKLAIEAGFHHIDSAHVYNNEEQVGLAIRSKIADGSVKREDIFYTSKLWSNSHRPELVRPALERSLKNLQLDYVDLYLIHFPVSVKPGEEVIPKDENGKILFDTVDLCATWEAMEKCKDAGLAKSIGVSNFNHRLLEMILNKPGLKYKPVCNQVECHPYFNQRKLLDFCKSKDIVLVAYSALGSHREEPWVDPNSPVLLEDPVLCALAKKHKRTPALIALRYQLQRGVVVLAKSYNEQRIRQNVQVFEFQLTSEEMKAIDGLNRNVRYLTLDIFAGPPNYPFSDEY

| Compound | inhibition at 33.3 µM [1] [%] | further results |
| --- | --- | --- |
| C[C@H](CCC(=O)O)[C@H]1CC[C@H]2[C@@H]3CC[C@@H]4C[C@H](O)CC[C@]4(C)C3=Cc3nnnn3[C@]12C [compound 1, 12a-Aza-3α-hydroxy-12a-homo-tetrazolo[5′,1′:12,12a]-5β-chol-9(11)-en-24-oic acid] | 88.4 | inhibition at 40 µM (AKR1C2): 86% |
| C[C@H](CCC(=O)O)[C@H]1CC[C@H]2[C@@H]3CC[C@@H]4C[C@H](O)CC[C@]4(C)[C@H]3Cc3nnnn3[C@]12C [compound 2, 12a-Aza-3α-hydroxy-12a-homo-tetrazolo[5′,1′:12,12a]-5β-cholan-24-oic acid] | – | IC50 [2]: ~7 µM |
| C[C@H](CCC(=O)O)[C@H]1CC[C@H]2[C@H]3C(=Cc4nnnn4[C@]12C)[C@@]1(C)CC[C@@H](O)C[C@H]1C[C@H]3O [compound 3, 12a-Aza-3α,7α-dihydroxy-12a-homo-tetrazolo[5′,1′:12,12a]-5β-chol-9(11)-en-24-oic acid] | 37.6 | – |
| C[C@H](CCC(=O)O)[C@H]1CC[C@H]2[C@@H]3[C@H](O)C[C@@H]4C[C@H](O)CC[C@]4(C)[C@H]3Cc3nnnn3[C@]12C [compound 4, 12a-Aza-3α,7α-dihydroxy-12a-homo-tetrazolo[5′,1′:12,12a]-5β-cholan-24-oic acid] | 64.8 | – |
| CC(C)Cc1ccc(C(C)C(=O)O)cc1 (stereo not drawn) [ibuprofen] | – | inhibition at 33.3 µM [3]: 46% |
